{"source": "patent US20120329738A1", "about": "“Water Soluble Drug-Solubilizer Powders and Their Uses” (priority 2009, published 2012)", "key": {"[1]": {"experiment": "in vitro", "details": "human, Caco-2", "from_the_text": "Human epithelial colorectal adenocarcinoma cell line (Caco-2) was obtained from the American Type Culture Collection (ATCC), and cultured according to directions. Caco-2 cells grown in tissue culture flasks were trypsinized, suspended in medium, and the suspensions were applied to wells of a collagen-coated BioCoat Cell Environment in 24-well format (BD Biosciences) at 24,500 cells per well. The cells were allowed to grow and differentiate for three weeks, feeding at 2-day intervals. […] For Apical to Basolateral (A->B) permeability, the test agent (1 mg/mL)+probe substrate were added to the apical (A) side, test agent was added to the Basolateral (B) side, and amount of permeation was determined on the B side. For Basolateral to Apical (B>A) permeability, the test agent+probe substrate were added to the B side, test agent was added to the A side, and the amount of permeation of probe substrate was determined on the A side. Buffer alone, without test agent, was used as a negative control. […] Dosing solutions were prepared by dissolving the test agent in Transport buffer, then adding Lucifer yellow to a portion as indicated. CaCo-2 cells were incubated with these buffers for 2 h., and the receiver side buffer is removed for analysis by LC/MS/MS.\nTo verify the CaCo-2 cell monolayers were properly formed, aliquots of the cell buffers were analyzed by fluorescence to determine the transport of the impermeable dye Lucifer Yellow.\nWhere dQ/dt is the rate of permeation, C0 is the initial concentration of test agent, and A is the area of the monolayer.\nFrom bidirectional permeability studies, the efflux ration (RE) is also calculated:\nThe P-gp inhibition data were calculated from the permeability results for the probe substrate as indicated. Ranitidine (low permeability) and warfarin (high permeability) are included as controls to ensure the proper performance of the test system."}, "[2]": {"details": "room temperature; The Merck Index, 1996; cited from earlier work"}, "[3]": {"experiment": "Solubility in water without solubilizer", "type": "physicochemical"}, "[4]": {"molecular_target": "T1, P-gp (Homo sapiens, UniProt P08183)", "T1 construct": "endogenous in cells; host or cells: Caco-2 (ATCC), differentiated for three weeks on collagen-coated inserts", "T1 sequence (P08183 whole entry)": "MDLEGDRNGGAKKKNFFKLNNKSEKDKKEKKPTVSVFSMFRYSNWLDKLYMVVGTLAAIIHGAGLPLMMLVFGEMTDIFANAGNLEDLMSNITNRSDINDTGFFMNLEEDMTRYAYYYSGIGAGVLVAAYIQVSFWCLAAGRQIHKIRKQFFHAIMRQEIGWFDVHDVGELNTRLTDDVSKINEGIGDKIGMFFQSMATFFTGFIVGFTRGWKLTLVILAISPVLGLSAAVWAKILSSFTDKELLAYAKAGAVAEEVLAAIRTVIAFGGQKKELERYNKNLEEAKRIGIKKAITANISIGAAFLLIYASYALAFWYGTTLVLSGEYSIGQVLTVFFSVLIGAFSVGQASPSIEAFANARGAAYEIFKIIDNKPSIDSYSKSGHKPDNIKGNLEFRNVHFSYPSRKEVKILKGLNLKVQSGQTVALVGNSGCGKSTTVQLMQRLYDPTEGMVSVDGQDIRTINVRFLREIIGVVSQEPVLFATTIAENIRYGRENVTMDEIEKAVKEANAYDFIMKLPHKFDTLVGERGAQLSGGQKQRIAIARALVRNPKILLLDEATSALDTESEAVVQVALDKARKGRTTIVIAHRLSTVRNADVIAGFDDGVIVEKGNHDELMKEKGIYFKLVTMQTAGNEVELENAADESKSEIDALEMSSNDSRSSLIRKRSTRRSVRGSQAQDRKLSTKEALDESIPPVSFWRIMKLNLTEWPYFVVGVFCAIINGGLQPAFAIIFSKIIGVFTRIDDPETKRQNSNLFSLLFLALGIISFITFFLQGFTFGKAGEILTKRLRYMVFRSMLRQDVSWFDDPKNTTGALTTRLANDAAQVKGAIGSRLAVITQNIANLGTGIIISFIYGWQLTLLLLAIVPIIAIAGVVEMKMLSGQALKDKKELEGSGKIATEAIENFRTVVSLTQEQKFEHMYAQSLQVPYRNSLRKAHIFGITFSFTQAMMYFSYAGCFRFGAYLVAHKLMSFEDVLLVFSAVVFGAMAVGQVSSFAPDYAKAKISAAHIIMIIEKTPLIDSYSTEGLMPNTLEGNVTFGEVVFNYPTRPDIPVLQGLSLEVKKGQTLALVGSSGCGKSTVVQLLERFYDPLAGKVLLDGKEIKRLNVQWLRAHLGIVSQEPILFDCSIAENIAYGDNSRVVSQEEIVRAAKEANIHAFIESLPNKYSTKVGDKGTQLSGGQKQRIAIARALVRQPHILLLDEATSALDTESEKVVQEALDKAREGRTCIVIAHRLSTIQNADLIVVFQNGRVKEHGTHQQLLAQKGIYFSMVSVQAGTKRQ", "experiment": "P-gp inhibition in Caco-2 assay with digoxin probe substrate", "type": "in vitro ADME", "details": "Caco-2 cell monolayers, probe digoxin 5 µM, test conc 1 mg/mL (1.558 mM), 5 μM digoxin", "description": "Test agent powders were stored at −20° C. […] After separation on a C18 reverse phase HPLC column (Agilent, Waters, or equivalent) using an acetonitrile-water gradient system, peaks were analyzed by mass spectrometry (MS) using ESI ionization in MRM mode.\nHuman epithelial colorectal adenocarcinoma cell line (Caco-2) was obtained from the American Type Culture Collection (ATCC), and cultured according to directions. Caco-2 cells grown in tissue culture flasks were trypsinized, suspended in medium, and the suspensions were applied to wells of a collagen-coated BioCoat Cell Environment in 24-well format (BD Biosciences) at 24,500 cells per well. […] For Apical to Basolateral (A->B) permeability, the test agent (1 mg/mL)+probe substrate were added to the apical (A) side, test agent was added to the Basolateral (B) side, and amount of permeation was determined on the B side. For Basolateral to Apical (B>A) permeability, the test agent+probe substrate were added to the B side, test agent was added to the A side, and the amount of permeation of probe substrate was determined on the A side. […]\nTo verify the CaCo-2 cell monolayers were properly formed, aliquots of the cell buffers were analyzed by fluorescence to determine the transport of the impermeable dye Lucifer Yellow. […]\nFrom bidirectional permeability studies, the efflux ration (RE) is also calculated: […]"}, "[5]": {"details": "for Curcumin content of reconstituted solution: 100 mg in 10 mL water", "method": "The water solutions containing the complexes of the water-insoluble compound and the solubilizer were dried to remove the water and to form a powder. […] Any method of water removal could be used, including freeze-drying, spray-drying, or oven drying. […] The amount of added water can be adjusted to achieve the desired concentration of the compound.\nThe 30% and 40% curcumin-rubusoside water solution (10 mL) were freeze-dried to powder. […] Part of this powder (100 mg) was re-constituted in 10 mL water. […] (FIG. 13) Similarly, the 30% curcumin-rebusoside solution was freeze-dried to powder, and 100 mg powder reconstituted with 10 mL water.\nThe powder was reconstituted using 1 ml, 0.5 ml, 0.25 ml or 0.1 ml water, followed by 60 min sonication and a brief vortex. […] Paclitaxel concentrations were determined using a standard paclitaxel calibration curve with paclitaxel standard in methanol. […] (FIG. 15)."}, "[6]": {"system": "human pancreatic cancer cells (PANC-1)", "details": "literature value; read-out: IC50 for Panc-1 reported by Holcomb et al.; cited from earlier work"}, "[7]": {"system": "human pancreatic cancer cells (PANC-1)", "experiment": "Growth inhibition of PANC-1 cells by re-constituted curcumin water solution", "type": "cell-based", "method": "The pH-adjusted water solution was then co-cultured with human pancreatic cancer cells (PANC-1) for 72 hours in a standard cell culture medium. […] All culture materials were purchased from Invitrogen Corporation (Carlsbad, Calif.). […] (FIG. 14)."}, "[8]": {"experiment": "Stability of curcumin-rubusoside water solutions (dilution with water, storage, pH)", "type": "physicochemical", "method": "This is important because the concentrated curcumin solution may be diluted in a biological system, e.g., in the stomach fluid.\nVarious concentrations of the solubilizer rubusoside were prepared in water: 0%, 1%, 2.5%, 5%, 10%, 20%, 30%, and 40% w/v. Curcumin (100 mg) was weighed and added into separate flasks, and an equal amount (10 ml) of a rubusoside solution was added to each flask. The prepared water solutions were vortexed briefly and then sonicated for 60 min at temperature of 50° C. These water solutions were subjected to a heat and pressure treatment composed of 121° C. and 1.1 to 1.2 atm for 60 min, and then placed in an incubator set at 25° C. for at least 24 hr. The solutions were then centrifuged at 4000 rpm for 10 min. The supernatant solution was passed through a 0.45 μm filter and analyzed for the concentration of either the water-insoluble compound or rubusoside by HPLC or LC/MS, as described above in Example 2. Quantification was done by comparing to a standard solution of a known amount in methanol. In the presence of 0%, 1%, 2.5%, 5%, 10%, 20%, 30%, and 40% w/v of rubusoside, the water solutions contained 0, 28, 267, 762, 1330, 2914, 4449, and 6004 μg/mL curcumin, respectively. […] When adjusted to about pH 7.0 by the addition of 1× phosphate buffered saline (PBS) powder, the solutions remained stable for at least 48 hours. Thus the reconstituted solution with saline would be sufficiently stable at pH 7.0 for use in a clinic setting."}, "[9]": {"experiment": "Concentration of curcumin dissolved in rebaudioside A water solution, HPLC", "type": "physicochemical", "details": "5% w/v rebaudioside A", "from_the_text": "A new method (the “Sonication—autoclave method”) was used to solublize most of the compounds, a method different from that reported in International Patent Application No. PCT/US2009/040324 (the “Standard Shake Flask method”). The main difference was the use of higher temperatures and elevated atmospheric pressures. The steps of the new enhanced process are as follows. A water-insoluble compound was weighed into multiple flasks, divided into two groups—a control group and an experimental group. Each experimental flask received a known amount of the solubilizing agent, e.g. rubusoside, being tested. The control flasks contained only the water-insoluble compound. The same volume, 10 mL, unless otherwise indicated, of deionized and distilled water was added to each flask. Alternatively, water solutions containing a known percentage of solubilizer (e.g., 5% or 10% w/v) were prepared. The solubilizer-water solutions were added directly to the experimental flasks containing the water-insoluble compound. In either case, the flasks were then vortexed briefly and sonicated for 60 min at 50° C. Sonication is a process of applying sound (usually ultrasound) energy to agitate particles in a sample. Using this energy, inter-molecular interactions are facilitated. After sonication, the solution was then subjected to heat and pressure. […] The supernatant solution was passed through a 0.45 μm filter and analyzed for the concentration of the water-insoluble compound or solubilizer by HPLC or LC/MS, as described below.\nTo test if the enhanced process also applies to another solubilizing agent, rebuadioside A was used. […] The water solutions were filtered by 0.45 μM filters and analyzed on HPLC. Quantification was done by comparing to a standard solution of a known amount of curcumin in methanol. […] Curcumin concentration was determined using a standard curcumin solution of 196.8 μg/mL. […]"}, "[10]": {"experiment": "physchem", "details": "25 °C, aqueous with cosolvent or surfactant or cyclodextrin, thermodynamic from solid"}}, "note": "Values joined by “and” are separate entries in the source; they are usually repeats but may differ in a detail not shown here. Identical values can stand only once. Like-named read-outs stand apart in the source and are kept apart here.", "data": [{"molecule": "C[C@H]1O[C@@H](O[C@H]2[C@@H](O)C[C@H](O[C@H]3[C@@H](O)C[C@H](O[C@H]4CC[C@@]5(C)[C@H](CC[C@@H]6[C@@H]5C[C@@H](O)[C@]5(C)[C@@H](C7=CC(=O)OC7)CC[C@]65O)C4)O[C@@H]3C)O[C@@H]2C)C[C@H](O)[C@@H]1O", "note": "[Digoxin, digoxin]", "values": [{"measurement": "Papp A→B at 2 h, 5 μM", "setting": "[1]", "result": 1.4, "unit": "×10⁻⁶ cm/s"}, {"measurement": "Papp B→A at 2 h, 5 μM", "setting": "[1]", "result": 18.7, "unit": "×10⁻⁶ cm/s"}, {"measurement": "efflux ratio at 2 h, 5 μM", "setting": "[1]", "result": 13.7}]}, {"molecule": "O=C(O)c1cc(O)c(O)c(O)c1", "note": "[Gallic acid]", "values": [{"measurement": "Solubility in water", "setting": "[2]", "result": "about 11 mg/ml"}]}, {"molecule": "CNC(=C[N+](=O)[O-])NCCSCc1ccc(CN(C)C)o1", "note": "[Ranitidine]", "values": [{"measurement": "Papp A→B at 2 h, 10 μM", "setting": "[1]", "result": 1.7, "unit": "×10⁻⁶ cm/s"}]}, {"molecule": "C=C1C[C@@]23CC[C@H]4[C@@](C)(CCC[C@@]4(C)C(=O)O[C@@H]4O[C@H](CO)[C@@H](O)[C@H](O)[C@H]4O)[C@@H]2CC[C@]1(O[C@@H]1O[C@H](CO)[C@@H](O)[C@H](O)[C@H]1O)C3", "note": "[Rubusoside, b-D-glucosyl ester of 13-O-b-D-glucosyl-steviol]", "values": [{"measurement": "solubility", "setting": "[3]; 25° C.", "result": "~400", "unit": "mg/mL"}, {"measurement": "solubility", "setting": "[3]; 37° C.", "result": "~800", "unit": "mg/mL"}, {"measurement": "inhibition at 2 h, 1 mg/mL", "setting": "[4]", "result": 59, "unit": "%"}]}, {"molecule": "CC(=O)CC(c1ccccc1)c1c(O)c2ccccc2oc1=O", "note": "(stereo not shown) [Warfarin, warfarin]", "values": [{"measurement": "Papp A→B at 2 h, 10 μM", "setting": "[1]", "result": 33.5, "unit": "×10⁻⁶ cm/s"}]}, {"molecule": "CC[C@@]1(O)C(=O)OCc2c1cc1n(c2=O)Cc2cc3ccccc3nc2-1", "note": "[camptothecin]", "values": [{"measurement": "Fold increase, enhanced vs standard process", "setting": "10% w/v rubusoside", "result": "more than 3 fold"}, {"measurement": "Concentration in water solution", "setting": "10% w/v rubusoside, enhanced process (Sonication-Autoclave)", "result": 247, "unit": "µg/mL"}, {"measurement": "Concentration in water solution", "setting": "10% w/v rubusoside, standard process (Shake-flask)", "result": 80, "unit": "µg/mL"}]}, {"molecule": "COc1cc(/C=C/C(=O)CC(=O)/C=C/c2ccc(O)c(OC)c2)ccc1O", "note": "[curcumin]", "values": [{"measurement": "Reconstitution of dried powder", "setting": "[5]", "result": "successfully reconstituted"}, {"measurement": "Curcumin content of reconstituted solution", "setting": "[5]; powder from 30% rubusoside solution", "result": 1.87, "unit": "% w/w"}, {"measurement": "Curcumin content of reconstituted solution", "setting": "[5]; powder from 40% rubusoside solution", "result": 2.03, "unit": "% w/w"}, {"measurement": "IC50", "setting": "[6]", "result": 17, "unit": "µM"}, {"measurement": "Growth inhibition", "setting": "[7]; 6.25 μg/mL curcumin, 72 hours", "result": "strong inhibition"}, {"measurement": "Curcumin concentration giving maximum growth inhibition", "setting": "[7]; 72 hours", "result": "≥ 12.5", "unit": "µg/mL"}, {"measurement": "IC50", "setting": "[7]; Homo sapiens, PANC-1, re-constituted curcumin-rubusoside solution, pH 7.2, 72 hours", "result": "~5.5 µg/mL and ~14.9 µM"}, {"measurement": "Growth inhibition", "setting": "[7]; curcumin below 3.13 μg/mL, 72 hours", "result": "no inhibitory effect"}, {"measurement": "Curcumin concentration", "setting": "24 h", "result": 0.34, "unit": "mg/mL"}, {"measurement": "Curcumin in water solution", "setting": "[8]; Stock, 40.0% w/v rubusoside", "result": 6004, "unit": "µg/mL"}, {"measurement": "Curcumin in water solution", "setting": "[8]; stock diluted 1:1 with water, 20.0% rubusoside", "result": 2985, "unit": "µg/mL"}, {"measurement": "Curcumin in water solution", "setting": "[8]; stock diluted 1:3 with water, 10.0% rubusoside", "result": 1489, "unit": "µg/mL"}, {"measurement": "Curcumin in water solution", "setting": "[8]; stock diluted 1:7 with water, 5.0% rubusoside", "result": 742, "unit": "µg/mL"}, {"measurement": "Curcumin in water solution", "setting": "[8]; stock diluted 1:15 with water, […] rubusoside", "result": 358, "unit": "µg/mL"}, {"measurement": "Curcumin in water solution", "setting": "[8]; stock diluted 1:39 with water, 1.0% rubusoside", "result": 135, "unit": "µg/mL"}, {"measurement": "Fold increase, enhanced vs standard process", "setting": "[9]", "result": "~2", "unit": "fold"}, {"measurement": "Curcumin in water solution", "setting": "[9]; enhanced process", "result": 302, "unit": "µg/mL"}, {"measurement": "Curcumin in water solution", "setting": "[9]; standard process", "result": 156, "unit": "µg/mL"}]}, {"molecule": "CC(=O)[C@H]1CC[C@H]2[C@@H]3CCC4=CC(=O)CC[C@]4(C)[C@H]3CC[C@]12C", "note": "[progesterone]", "values": [{"measurement": "Reconstitution of dried powder", "setting": "[5]", "result": "successfully reconstituted"}]}, {"molecule": "Oc1ccc(C=Cc2cc(O)cc(O)c2)cc1", "note": "[resveratrol]", "values": [{"measurement": "Reconstitution of dried powder", "setting": "[5]", "result": "successfully reconstituted"}]}, {"molecule": "C=C1CC[C@H](O)C/C1=C/C=C1\\CCC[C@]2(C)[C@@H]([C@H](C)CCCC(C)C)CC[C@@H]12", "note": "[vitamin D3, cholecalciferol]", "values": [{"measurement": "solubility", "setting": "[10]", "result": 4.5, "unit": "mg/mL"}, {"measurement": "Concentration in re-composed single water solution", "setting": "mixed vitamins A, D, E, K in 10% rubusoside", "result": 4.7, "unit": "µg/mL"}]}]}
